Tests used:
MMP-9 = MMP-9 (Homo sapiens, UniProt P14780); assay: MMP-9 fluorometric inhibitor screening kit assay; conditions: read-out: IC50 MMP-9; triplicate, S.D.
Protocol: (§1) MMP-2, MMP-9, and MMP-13 were assayed for inhibition using the respective abcam: ab139447, ab139449, and ab139451 Inhibitor Screening Kits. The supplied kits were adaptable to a microplate reader protocol designed for observing a fluorometric change associated with the cleavage of substrate analog at 37 °C. Briefly, each assay or control included a combined volume of 100 µL. […] The enzymes were then diluted in the assay buffer and 20 µL of each was added to give an assay concentrations of 0.042 nM (MMP-2), 1.9 nM (MMP-9), and 1.86 nM (MMP-13). […] The reaction was excited at 328 nm and emission detected at 420 nm. Fluorescence was measured every 60 s for a total of 960 s.
(§2) For each assay, data were truncated at 1000 s and offsets were applied to bring the initial fluorescence of each assay to zero. Replicate data for assays of individual inhibitor concentrations were plotted in KaleidaGraph (Synergy Software) for comparison and obvious outliers were culled from the analysis. The remaining data were averaged to yield one trace for each inhibitor concentration. The average data were combined into a dataset that included all assayed inhibitor concentrations for each MMP paralog. […]
(§3) The error was calculated by propagating the error for ratios of rate constants derived from fitting.

MMP-2 = target: T1, MMP-2 (Homo sapiens, UniProt P08253); assay: MMP-2 fluorometric inhibitor screening kit assay; conditions: read-out: IC50 MMP-2; triplicate, S.D.
T1 sequence (P08253 110-660): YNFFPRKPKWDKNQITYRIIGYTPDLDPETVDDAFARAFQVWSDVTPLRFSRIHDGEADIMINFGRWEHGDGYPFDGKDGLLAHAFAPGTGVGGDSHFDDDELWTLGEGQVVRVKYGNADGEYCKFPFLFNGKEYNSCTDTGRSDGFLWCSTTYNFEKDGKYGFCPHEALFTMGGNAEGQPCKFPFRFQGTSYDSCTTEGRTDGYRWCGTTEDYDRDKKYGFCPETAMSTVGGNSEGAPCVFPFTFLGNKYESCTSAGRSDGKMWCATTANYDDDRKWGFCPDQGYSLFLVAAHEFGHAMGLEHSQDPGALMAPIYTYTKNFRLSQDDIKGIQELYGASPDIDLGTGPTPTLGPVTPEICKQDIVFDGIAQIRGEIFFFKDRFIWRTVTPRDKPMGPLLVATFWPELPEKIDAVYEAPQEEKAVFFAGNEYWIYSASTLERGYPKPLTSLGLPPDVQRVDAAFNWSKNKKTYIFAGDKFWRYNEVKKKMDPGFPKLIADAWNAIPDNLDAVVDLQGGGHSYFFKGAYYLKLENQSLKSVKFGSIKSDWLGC
Protocol: as §1, §2, §3

[1] = test system: U87 delta EGFR glioma cells; assay: In vitro BNCT survival study, colony formation assay; format: cell-based; conditions: for Survival rate: 20 ppm of 10B in BPA; for Thermal neutron fluence yielding the D37 value: BPA 20 ppm 10B
Protocol: SCC VII tumor cells were incubated and stabilized in a logarithmic subconfluent growth phase at 36 °C in a 5% carbon dioxide atmosphere in a 10 cm diameter tissue culture dishes (100 mm tissue culture dishes; Corning Glass Works, Corning, NY, USA) containing Eagle’s MEM containing 10% heat-inactivated fetal bovine serum and 2 mM L-glutamine. The U87 delta EGFR glioma cell line, kindly provided by Dr. H. Michiue (Okayama University, Okayama, Japan), which stably expressed the constitutively active EGFRvIII, was used in the colony formation assay. The cells were maintained in Dulbecco’s modified Eagle’s medium (DMEM; FUJIFILM Wako Pure Chemical Corporation, Richmond, VA, USA with 10% fetal bovine serum (FBS), penicillin, and streptomycin at 37 °C in a humidified atmosphere containing 5% CO2. The stock solutions of B1 and B2 were obtained by dissolving 6 mg of them in 1 ml DMSO, respectively. For SCC VII cells, after adding 100 μL of a boron solution, the cells were incubated for boron loading into tumor cells for 5 h. […] The ^10B (0.143 ppm ^10B for 1 (B1) and 0.101 ppm for 2 (B2) in the medium was reconfirmed by PGS (prompt γ spectroscopy) in the SCC VII colony forming assay. After boron loading, the cells were trypsinized and washed three times by PBS, and 5 × 10^3 cells/mL MEM (FCS+) were irradiated with thermal neutrons in column-shaped Teflon tubes (1 × 3 cm). […] The irradiation times were 0, 15, 30 and 45 min. The thermal neutrons flux was 1.8 × 10^9 cm^−2·s^−1. The thermal neutron fluence was determined by averaging two gold foils symmetrically attached to the surface of the Teflon tube along the direction of the incidence of the thermal neutrons. The neutron absorbed dose (Gy) was calculated using the flux-to-dose conversion factor [61]. The chemical composition of the tumors was assumed to be 10.7% hydrogen, 12.1% carbon, 2% nitrogen, 71.4% oxygen, and 3.8% others. The γ-ray dose rate, including secondary γ-rays, was 1.0 × 10^−2 Gy·min^−1, according to a thermoluminescence dosimeter attached to the surface of a Teflon tube containing 1 mL MEM. After thermal neutron exposure, 300 or 900 cells were placed in three Corning 60 mm tissue culture dishes containing 6 mL MEM to examine colony formation. Ten days later, the colonies were fixed with 70% ethanol and stained with 5% Giemsa solution for quantitative visualization by the naked eye.

SCC VII tumor cells [2] = assay: Cytotoxicity: IC50, growth inhibition after 3 days of continuous exposure; format: cell-based; conditions: 3 days continuous exposure, read-out: IC50 (cell toxicity)
Protocol: Suspensions of 105 SCC VII cells/200 μL MEM containing 10% FCS (fetal calf serum) were incubated for 3 days in 96-well microplate with various concentrations of 1 and 2 (B1 and B2). After 3 days of exposure, the cell were washed with PBS and fixed with 70% ethanol. The SCC VII cells were stained with 5% Giemsa solution for 15 min. After removing the solution, the cells were dried in air and Giemsa stained cells were uniformized by the addition of 100 μL of alcohol. The optical absorbance at 595 nm was measured by optical densitometer.

SCC VII tumor cells [3] = assay: In vitro BNCT survival study, colony formation assay; format: cell-based
Protocol: SCC VII tumor cells were incubated and stabilized in a logarithmic subconfluent growth phase at 36 °C in a 5% carbon dioxide atmosphere in a 10 cm diameter tissue culture dishes (100 mm tissue culture dishes; Corning Glass Works, Corning, NY, USA) containing Eagle’s MEM containing 10% heat-inactivated fetal bovine serum and 2 mM L-glutamine. The U87 delta EGFR glioma cell line, kindly provided by Dr. H. Michiue (Okayama University, Okayama, Japan), which stably expressed the constitutively active EGFRvIII, was used in the colony formation assay. […] The thermal neutron fluence was determined by averaging two gold foils symmetrically attached to the surface of the Teflon tube along the direction of the incidence of the thermal neutrons. The neutron absorbed dose (Gy) was calculated using the flux-to-dose conversion factor [61]. […] Ten days later, the colonies were fixed with 70% ethanol and stained with 5% Giemsa solution for quantitative visualization by the naked eye.

Chain of MMP-9 (P14780 94-707): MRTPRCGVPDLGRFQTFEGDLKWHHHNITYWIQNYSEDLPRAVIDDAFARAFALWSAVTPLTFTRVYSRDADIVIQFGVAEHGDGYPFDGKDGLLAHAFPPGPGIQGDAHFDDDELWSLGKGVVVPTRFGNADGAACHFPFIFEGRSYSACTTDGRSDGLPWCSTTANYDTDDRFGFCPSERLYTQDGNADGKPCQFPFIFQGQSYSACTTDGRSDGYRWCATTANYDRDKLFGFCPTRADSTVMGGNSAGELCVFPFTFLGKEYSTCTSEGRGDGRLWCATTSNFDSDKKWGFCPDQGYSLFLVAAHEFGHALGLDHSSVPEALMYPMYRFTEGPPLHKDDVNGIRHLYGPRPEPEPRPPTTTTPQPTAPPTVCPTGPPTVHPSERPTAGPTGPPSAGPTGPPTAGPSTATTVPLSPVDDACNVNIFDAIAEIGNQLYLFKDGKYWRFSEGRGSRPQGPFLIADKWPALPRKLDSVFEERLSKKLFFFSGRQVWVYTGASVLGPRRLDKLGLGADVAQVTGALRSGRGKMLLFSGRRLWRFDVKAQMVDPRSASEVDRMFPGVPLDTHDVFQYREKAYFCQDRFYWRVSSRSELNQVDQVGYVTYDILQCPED

Row | Compound | IC50 (MMP-9) | IC50 (MMP-2) | Survival rate ([1]; thermal neutron fluence 2.7 × 10^12 cm^−2) | Survival rate ([1]; thermal neutron fluence […] 10^12 cm^−2) | Thermal neutron fluence yielding the D37 value ([1]; U87 MG delta EGFR, 4 0.48 ppm 10B (Figure 8)) | Thermal neutron fluence yielding the D37 value ([1]; U87 delta EGFR, 2 (B2) 0.7 ppm 10B (Figure 7)) | IC50 (SCC VII tumor cells [2]) | D37 absorbed dose (dose used to inhibit 63% colony formation) (SCC VII tumor cells [3]; SCC VII after in vitro BNCT, pre-incubation 0.143 ppm 10B (1), 0.101 ppm 10B (2)) | Thermal neutron fluence yielding the D37 value (SCC VII tumor cells [3]; SCC VII, BPA 20 ppm 10B, 4 0.48 ppm 10B (Figure 9))
1 | COc1ccc(S(=O)(=O)N(CC(=O)NO)CC(C)C)cc1 [NNGH, N-isobutyl-N-(4-methoxyphenylsulfonyl)glycyl hydroxamic acid, reference compound] | 0.0028 ± 1.4e-05 µM | 0.0085 ± 0.0011 µM | – | – | – | – | – | – | –
2 | N[C@@H](Cc1ccc(B(O)O)cc1)C(=O)O [BPA, L-boronophenylalanine, reference compound] | – | – | 6.2 ± 1.4% | 24.2 ± 7.7% | 1.2 × 10^12 | 1.0 × 10^12 | 25500 µM | 0.82 Gy | 6.0 × 10^11

From article PMC10139035, “Carborane-Containing Hydroxamate MMP Ligands for the Treatment of Tumors Using Boron Neutron Capture Therapy (BNCT): Efficacy without Tumor Cell Entry” (International Journal of Molecular Sciences, 2023)
